What is called IC50 is the concentration at which inhibition is half-maximal.

Where a name gives a salt, the structure may show the parent alone. Read-outs that look alike come from different tables or passages of the source.

The assay has as its system HIV-1 strain 92HT599. Briefly: Antiviral activity against HIV-1 strain 92HT599 in MT2 cells (p24 estimation). It is filed as cell-based. The settings on record: HIV-1 92HT599, ~96 hours. The protocol:
Example 77: Evaluation of Compounds Antiviral Activity Against HIV-1 Strain 92HT599 in MT2 Cells
MT2 cells were infected with HIV-1 strain 92HT599 (10 TCID 50/30000 cells). The infected cells were plated at the concentration of 30,000 cells per well in 96 well plate. Test compound was added to the micro plate in defined format with the final concentration of DMSO (vehicle) is not more than 1%. Incubation was carried out in CO2 incubator for ˜96 hours for viral infection. At the end of incubation period an aliquot from each well was taken for p24 estimation. The quantitation of p24 is an index for antiviral activity of the compound. Percent inhibition was calculated with reference to control values (vehicle controls). p24 estimation was carried out using Advance biosciences kit as per the procedure detailed by supplier.

The mark [1] stands for this setting: Human immunodeficiency virus 1, 0% serum binding assay, read-out: IC50 0% serum.
Where [2] appears, read: Human immunodeficiency virus 1, 40% serum binding assay, read-out: IC50 40% serum.

As to `Cc1ccc(-c2nc3cc(C(=O)NC(C)(C)C(=O)N[C@@]45CC[C@]6(C)[C@H](CC[C@@H]7[C@@]8(C)CC[C@H](OC(=O)[C@H]9C[C@@H](C(=O)O)C9(C)C)C(C)(C)[C@@H]8CC[C@]76C)C4=C(C(C)C)C(=O)C5)ccc3[nH]2)cn1` [Example 13, (1R,3S)-3-((((3aR,5aR,5bR,7aR,9S,11aR,11bR,13aS)-1-isopropyl-5a,5b,8,8,11a-pentamethyl-3a-(2-methyl-2-(2-(6-methylpyridin-3-yl)-1H-benzo[d]imidazole-5-carboxamido)propanamido)-2-oxo-3,3a,4,5,5a,5b,6,7,7a,8,9,10,11,11a,11b,12,13,13a-octadecahydro-2H-cyclopenta[a]chrysen-9-yl)oxy)carbonyl)-2,2-dimethylcyclobutane-1-carboxylic acid], the IC50 is below 3 nM under setting [1] and below 50 nM under setting [2].

Turning to `CC(C)C1=C2[C@H]3CC[C@@H]4[C@@]5(C)CC[C@H](OC(=O)[C@@H]6C[C@H](C(=O)O)C6(C)C)C(C)(C)[C@@H]5CC[C@@]4(C)[C@]3(C)CC[C@@]2(NC(=O)C(C)(C)NC(=O)c2ccc(Cl)cc2)CC1=O` [Example 21, (1S,3R)-3-((((3aR,5aR,5bR,7aR,9S,11aR,11bR,13aS)-3a-(2-(4-chlorobenzamido)-2-methylpropanamido)-1-isopropyl-5a,5b,8,8,11a-pentamethyl-2-oxo-3,3a,4,5,5a,5b,6,7,7a,8,9,10,11,11a,11b,12,13,13a-octadecahydro-2H-cyclopenta[a]chrysen-9-yl)oxy)carbonyl)-2,2-dimethylcyclobutane-1-carboxylic acid], the IC50 under setting [1] was 3.01 to 10 nM and the half-maximal inhibitory concentration (IC50) under setting [2] is below 50 nM.

`CC(C)C1=C2[C@H]3CC[C@@H]4[C@@]5(C)CC[C@H](OC(=O)[C@H]6C[C@@H](C(=O)O)C6(C)C)C(C)(C)[C@@H]5CC[C@@]4(C)[C@]3(C)CC[C@@]2(NC(=O)C(C)(C)NC(=O)c2ccc(F)cc2)CC1=O` [Example 22, (1R,3S)-3-((((3aR,5aR,5bR,7aR,9S,11aR,11bR,13aS)-3a-(2-(4-fluorobenzamido)-2-methylpropanamido)-1-isopropyl-5a,5b,8,8,11a-pentamethyl-2-oxo-3,3a, 4,5,5a,5b,6,7,7a,8,9,10,11,11a,11b,12,13,13a-octadecahydro-2H-cyclopenta[a]chrysen-9-yl)oxy)carbonyl)-2,2-dimethylcyclobutane-1-carboxylic acid]: the half-maximal inhibitory concentration (IC50) under setting [1] was below 3 nM and the IC50 under setting [2] was below 50 nM.

In the case of `Cc1ccc(C(=O)NC(C)(C)C(=O)N[C@@]23CC[C@]4(C)[C@H](CC[C@@H]5[C@@]6(C)CC[C@H](OC(=O)[C@H]7C[C@@H](C(=O)O)C7(C)C)C(C)(C)[C@@H]6CC[C@]54C)C2=C(C(C)C)C(=O)C3)cc1` [Example 23, (1R,3S)-3-((((3aR,5aR,5bR,7aR,9S,11aR,11bR,13aS)-1-isopropyl-5a,5b,8,8,11a-pentamethyl-3a-(2-methyl-2-(4-methylbenzamido)propanamido)-2-oxo-3,3a,4,5,5a,5b,6,7,7a,8,9,10,11,11a,11b,12,13,13a-octadecahydro-2H-cyclopenta[a]chrysen-9-yl)oxy)carbonyl)-2,2-dimethylcyclobutane-1-carboxylic acid], the IC50 is, setting by setting: under setting [1], below 3 nM; under setting [2], below 50 nM.

Regarding `CC(C)C1=C2[C@H]3CC[C@@H]4[C@@]5(C)CC[C@H](OC(=O)[C@H]6C[C@@H](C(=O)O)C6(C)C)C(C)(C)[C@@H]5CC[C@@]4(C)[C@]3(C)CC[C@@]2(NC(=O)C(C)(C)NC(=O)c2ccoc2)CC1=O` [Example 24, (1R,3S)-3-((((3aR,5aR,5bR,7aR,9S,11aR,11bR,13aS)-3a-(2-(furan-3-carboxamido)-2-methylpropanamido)-1-isopropyl-5a,5b, 8,8,11a-pentamethyl-2-oxo-3,3a,4,5,5a,5b,6,7,7a,8,9,10,11,11a,11b,12,13,13a-octadecahydro-2H-cyclopenta[a]chrysen-9-yl)oxy)carbonyl)-2,2-dimethylcyclobutane-1-carboxylic acid], the IC50 is, setting by setting: under setting [1], below 3 nM; under setting [2], 50 to 200 nM.

Regarding `CC(C)C1=C2[C@H]3CC[C@@H]4[C@@]5(C)CC[C@H](OC(=O)[C@H]6C[C@@H](C(=O)O)C6(C)C)C(C)(C)[C@@H]5CC[C@@]4(C)[C@]3(C)CC[C@@]2(NC(=O)C(C)(C)NC(=O)c2ccco2)CC1=O` [Example 26, (1R,3S)-3-((((3aR,5aR,5bR,7aR,9S,11aR,11bR,13aS)-3a-(2-(furan-2-carboxamido)-2-methylpropanamido)-1-isopropyl-5a,5b,8,8,11a-pentamethyl-2-oxo-3,3a,4,5,5a,5b,6,7,7a,8,9,10,11,11a,11b,12,13,13a-octadecahydro-2H-cyclopenta[a]chrysen-9-yl)oxy)carbonyl)-2,2-dimethylcyclobutane-1-carboxylic acid], the concentration for half-maximal inhibition (IC50) was below 3 nM under setting [1] and 50 to 200 nM under setting [2].

In the case of `CC(C)C1=C2[C@H]3CC[C@@H]4[C@@]5(C)CC[C@H](OC(=O)[C@H]6C[C@@H](C(=O)O)C6(C)C)C(C)(C)[C@@H]5CC[C@@]4(C)[C@]3(C)CC[C@@]2(NC(=O)C(C)(C)NC(=O)C2(c3ccccc3)CCCC2)CC1=O` [Example 27, (1R,3S)-3-((((3aR,5aR,5bR,7aR,9S,11aR,11bR,13aS)-1-isopropyl-5a,5b,8,8,11a-pentamethyl-3a-(2-methyl-2-(1-phenylcyclopentane-1-carboxamido)propanamido)-2-oxo-3,3a,4,5,5a,5b,6,7,7a,8,9,10,11,11a,11b,12,13,13a-octadecahydro-2H-cyclopenta[a]chrysen-9-yl)oxy)carbonyl)-2,2-dimethylcyclobutane-1-carboxylic acid], the IC50 was 3.01 to 10 nM under setting [1] and 50 to 200 nM under setting [2].

With `CC(C)C1=C2[C@H]3CC[C@@H]4[C@@]5(C)CC[C@H](OC(=O)[C@H]6C[C@@H](C(=O)O)C6(C)C)C(C)(C)[C@@H]5CC[C@@]4(C)[C@]3(C)CC[C@@]2(NC(=O)C(C)(C)NC(=O)C2CCNCC2)CC1=O` [Example 35, (1R,3S)-3-((((3aR,5aR,5bR,7aR,9S,11aR,11bR,13aS)-1-isopropyl-5a,5b,8,8,11a-pentamethyl-3a-(2-methyl-2-(piperidine-4-carboxamido)propanamido)-2-oxo-3,3a,4,5,5a,5b,6,7,7a,8,9,10,11,11a,11b,12,13,13a-octadecahydro-2H-cyclopenta[a]chrysen-9-yl)oxy)carbonyl)-2,2-dimethylcyclobutane-1-carboxylic acid hydrochloride], the IC50 was above 10 nM under setting [1] and above 200 nM under setting [2].

`CC(C)C1=C2[C@H]3CC[C@@H]4[C@@]5(C)CC[C@H](OC(=O)[C@H]6C[C@@H](C(=O)O)C6(C)C)C(C)(C)[C@@H]5CC[C@@]4(C)[C@]3(C)CC[C@@]2(NC(=O)C(C)(C)NC(=O)[C@@H](N)C(C)C)CC1=O` [Example 36, (1R,3S)-3-((((3aR,5aR,5bR,7aR,9S,11aR,11bR,13aS)-3a-(2-((S)-2-amino-3-methylbutanamido)-2-methylpropanamido)-1-isopropyl-5a,5b,8,8,11a-pentamethyl-2-oxo-3,3a,4,5,5a,5b,6,7,7a,8,9,10,11,11a,11b,12,13,13a-octadecahydro-2H-cyclopenta[a]chrysen-9-yl)oxy)carbonyl)-2,2-dimethylcyclobutane-1-carboxylic acid hydrochloride]: the IC50 is below 3 nM under setting [1] and 50 to 200 nM under setting [2].

For `Cc1ccc(C(=O)NC2(C(=O)N[C@@]34CC[C@]5(C)[C@H](CC[C@@H]6[C@@]7(C)CC[C@H](OC(=O)[C@H]8C[C@@H](C(=O)O)C8(C)C)C(C)(C)[C@@H]7CC[C@]65C)C3=C(C(C)C)C(=O)C4)CCC2)cn1` [Example 43, (1R,3S)-3-((((3aR,5aR,5bR,7aR,9S,11aR,11bR,13aS)-1-isopropyl-5a,5b,8,8,11a-pentamethyl-3a-(1-(6-methylnicotinamido)cyclobutane-1-carboxamido)-2-oxo-3,3a,4,5,5a,5b,6,7,7a,8,9,10,11,11a,11b,12,13,13a-octadecahydro-2H-cyclopenta[a]chrysen-9-yl)oxy)carbonyl)-2,2-dimethylcyclobutane-1-carboxylic acid], the IC50 was below 3 nM under setting [1] and below 50 nM under setting [2].

In the case of `CC(C)C1=C2[C@H]3CC[C@@H]4[C@@]5(C)CC[C@H](OC(=O)[C@H]6C[C@@H](C(=O)O)C6(C)C)C(C)(C)[C@@H]5CC[C@@]4(C)[C@]3(C)CC[C@@]2(NC(=O)C2(NC(=O)c3ccc(Cl)cc3)CCCC2)CC1=O` [Example 46, (1R,3S)-3-((((3aR,5aR,5bR,7aR,9S,11aR,11bR,13aS)-3a-(1-(4-chlorobenzamido)cyclopentane-1-carboxamido)-1-isopropyl-5a,5b,8,8,11a-pentamethyl-2-oxo-3,3a,4,5,5a,5b,6,7,7a,8,9,10,11,11a,11b,12,13,13a-octadecahydro-2H-cyclopenta[a]chrysen-9-yl)oxy)carbonyl)-2,2-dimethylcyclobutane-1-carboxylic acid], the IC50 runs as follows: under setting [1], below 3 nM; under setting [2], below 50 nM.

On to `CC(C)C1=C2[C@H]3CC[C@@H]4[C@@]5(C)CC[C@H](OC(=O)[C@H]6C[C@@H](C(=O)O)C6(C)C)C(C)(C)[C@@H]5CC[C@@]4(C)[C@]3(C)CC[C@@]2(NC(=O)C2(NC(=O)c3ccc(Cl)cc3)CCCCC2)CC1=O` [Example 48, (1R,3S)-3-((((3aR,5aR,5bR,7aR,9S,11aR,11bR,13aS)-3a-(1-(4-chlorobenzamido)cyclohexane-1-carboxamido)-1-isopropyl-5a,5b,8,8,11a-pentamethyl-2-oxo-3,3a,4,5,5a,5b,6,7,7a,8,9,10,11,11a,11b,12,13,13a-octadecahydro-2H-cyclopenta[a]chrysen-9-yl)oxy)carbonyl)-2,2-dimethylcyclobutane-1-carboxylic acid], for which the IC50 under setting [1] is below 3 nM and the IC50 under setting [2] was below 50 nM.

Values taken from patent US11034718B2, “C-3 novel triterpenone with C-17 reverse amide derivatives as HIV inhibitors” (HETERO LABS LIMITED, priority 2015, dated 2021).
